# Assay results from patent publication US4861768A, “2 β-substituted thiomethylpenicillin derivatives and their preparation and use” (Taiho Pharmaceutical Company, Limited, priority 1986, dated 1989).
# Columns and labels:
# [1] = molecular target: penicillinase (β-lactamase) from Bacillus SP; experiment: Test for β-lactamase inhibitory activity (microiodometry, penicillin G as substrate); format: biochemical; conditions: read-out: 50% Inhibitory Concentration
# Protocol: The inhibitory activity of each compound against penicillinase (β-lactamase) from Bacillus SP was determined by microiodometry [Tanpakushitsu Kakusan Koso (Proteins, Nucleic Acids and Enzymes), vol. 23, No.5, pp 391-400 (1978)] using penicillin G as a substrate.
# Echerichia coli SHV 1 = experiment: MIC of piperacillin alone or with compound, Echerichia coli SHV 1; format: cell-based; conditions: 20 h, read-out: MIC, Piperacillin alone
# Protocol: (§1) (1) The minimal inhibitory concentrations (MIC) of piperacillin in the presence of 10 μg/ml of compounds of the present invention against various bacteria were determined by the MIC assay method of Japan Society of Chemotherapy (Chemotherapy 29, No. 1, pp. 76-79, 1981). The MIC values of various compounds according to the present invention and of piperacillin, as used singly, were also determined. Each test strain was grown in Mueller Hinton Broth (Difco) and used for inoculation after dilution to a concentration of 10^6 CFU/ml. The assay media (Mueller Hinton Broth) containing piperacillin and the compound according to the present invention in a series of concentrations were inoculated with the test strain and incubated at 37° C. for 20 hours. The minimum concentration at which no more than 5 colonies were observed was determined. […] All the test strains used in the above assays were β-lactamase producers.
# [2] = tested on: Klebsiella pneumoniae 101 L (TEM1); experiment: MIC of piperacillin alone or with compound, Klebsiella pneumoniae 101 L (TEM1); format: cell-based; conditions: 20 h, read-out: MIC, Piperacillin alone
# Protocol: as §1
# Morganella morganii 119 = experiment: MIC of piperacillin alone or with compound, Morganella morganii 119; format: cell-based; conditions: alone, Mueller Hinton Broth, 10^6 CFU/ml, 37° C., 20 hours
# Protocol: as §1
# [3] = tested on: Serratia marcescens 200 L (TEM + C); experiment: MIC of piperacillin alone or with compound, Serratia marcescens 200 L (TEM + C); format: cell-based; conditions: alone, Mueller Hinton Broth, 10^6 CFU/ml, 37° C., 20 hours
# Protocol: as §1
# Acinetobacter 450 L = experiment: MIC of piperacillin alone or with compound, Acinetobacter 450 L; format: cell-based; conditions: alone, Mueller Hinton Broth, 10^6 CFU/ml, 37° C., 20 hours
# Protocol: as §1
# [4] = tested on: Pseudomonas aeruginosa PSE 3; experiment: MIC of piperacillin alone or with compound, Pseudomonas aeruginosa PSE 3; format: cell-based; conditions: PSE3, alone, Mueller Hinton Broth, 10^6 CFU/ml, 37° C., 20 hours
# Protocol: as §1
# [5] = tested on: Staphylococcus aureus 54 K; experiment: MIC of piperacillin alone or with compound, Staphylococcus aureus 54 K; format: cell-based; conditions: alone, Mueller Hinton Broth, 10^6 CFU/ml, 37° C., 20 hours
# Protocol: as §1
structure (smiles),measurement,setting,value
"CC1(CSC#N)C(C(=O)O)N2C(=O)CC2S1(=O)=O (stereo not drawn) [Compound 26, sodium 2α-methyl-2β-thiocyanatomethylpenam-3α-carboxylate 1,1-dioxide]",IC50,[1],9800 nM
"Cn1nnnc1SCC1(C)C(C(=O)O)N2C(=O)CC2S1(=O)=O (stereo not drawn) [Compound 27, sodium 2α-methyl-2β-(1-methyl-5-tetrazolyl)thiomethylpenam-3α-carboxylate 1,1-dioxide]",IC50,[1],870 nM
"CC1(CSc2nnnn2-c2ccccc2)C(C(=O)O)N2C(=O)CC2S1(=O)=O (stereo not drawn) [Compound 28, sodium 2α-methyl-2β-(1-phenyl-5-tetrazolyl)thiomethylpenam-3α-carboxylate 1,1-dioxide]",IC50,[1],1000 nM
"CC1(CSc2nnnn2-c2ccc(Cl)cc2)C(C(=O)O)N2C(=O)CC2S1(=O)=O (stereo not drawn) [Compound 29, sodium 2β-(1-p-chlorophenyl-5-tetrazolylthio)methyl-2α-methylpenam-3α-carboxylate 1,1-dioxide]",IC50,[1],480 nM
"COc1ccc(-n2nnnc2SCC2(C)C(C(=O)O)N3C(=O)CC3S2(=O)=O)cc1 (stereo not drawn) [Compound 30, sodium 2β-(1-p-methoxyphenyl-5-tetrazolylthio)methyl-2α-methylpenam-3α-carboxylate 1,1-dioxide]",IC50,[1],750 nM
"CC1(CSc2nnnn2CCO)C(C(=O)O)N2C(=O)CC2S1(=O)=O (stereo not drawn) [Compound 31, sodium 2β-[1-(2'-hydroxyethyl)-5-tetrazolylthio]methyl-2α-methylpenam-3α-carboxylate 1,1-dioxide]",IC50,[1],1820 nM
"CCN1CCN(C(=O)N[C@@H](C(=O)N[C@@H]2C(=O)N3[C@@H]2SC(C)(C)[C@@H]3C(=O)O)c2ccccc2)C(=O)C1=O [Piperacillin, piperacillin]",MIC,Echerichia coli SHV 1,12.5 µg/mL
same,MIC,[2],200 µg/mL
same,MIC,Morganella morganii 119,25 µg/mL
same,MIC,[3],25 µg/mL
same,MIC,Acinetobacter 450 L,200 µg/mL
same,MIC,[4],50 µg/mL
same,MIC,[5],6.25 µg/mL
